Measurements from patent US10689361B2, “Quinoline derivative and use thereof” (priority 2016, dated 2020).

Key:
EGFR = EGFR (Homo sapiens, UniProt P00533); assay: Caliper Mobility Shift Assay, kinase inhibition; format: biochemical; settings: read-out: Kinase inhibitory activity (IC50, nM) EGFR
Experimental: (§1) The semi-inhibitory concentration IC50 (the concentration of the compound required to inhibit the enzymatic activity to 50%) of a compound was measured by mixing a fixed enzyme with a specific substrate and the test compound of different concentrations. The test method used was Caliper Mobility Shift Assay, the kinases tested were VEGFR1, VEGFR2, VEGFR3, FLT3, PDGFRα, PDGFRβ, FGFR1, RET, EGFR and IGF1R, and the standard reference compound used was staurosporine.

IGF1R = IGF1R (Homo sapiens, UniProt P08069); assay: Caliper Mobility Shift Assay, kinase inhibition; format: biochemical; settings: read-out: Kinase inhibitory activity (IC50, nM) IGF1R
Sequence of IGF1R (P08069 31-1367, species assumed): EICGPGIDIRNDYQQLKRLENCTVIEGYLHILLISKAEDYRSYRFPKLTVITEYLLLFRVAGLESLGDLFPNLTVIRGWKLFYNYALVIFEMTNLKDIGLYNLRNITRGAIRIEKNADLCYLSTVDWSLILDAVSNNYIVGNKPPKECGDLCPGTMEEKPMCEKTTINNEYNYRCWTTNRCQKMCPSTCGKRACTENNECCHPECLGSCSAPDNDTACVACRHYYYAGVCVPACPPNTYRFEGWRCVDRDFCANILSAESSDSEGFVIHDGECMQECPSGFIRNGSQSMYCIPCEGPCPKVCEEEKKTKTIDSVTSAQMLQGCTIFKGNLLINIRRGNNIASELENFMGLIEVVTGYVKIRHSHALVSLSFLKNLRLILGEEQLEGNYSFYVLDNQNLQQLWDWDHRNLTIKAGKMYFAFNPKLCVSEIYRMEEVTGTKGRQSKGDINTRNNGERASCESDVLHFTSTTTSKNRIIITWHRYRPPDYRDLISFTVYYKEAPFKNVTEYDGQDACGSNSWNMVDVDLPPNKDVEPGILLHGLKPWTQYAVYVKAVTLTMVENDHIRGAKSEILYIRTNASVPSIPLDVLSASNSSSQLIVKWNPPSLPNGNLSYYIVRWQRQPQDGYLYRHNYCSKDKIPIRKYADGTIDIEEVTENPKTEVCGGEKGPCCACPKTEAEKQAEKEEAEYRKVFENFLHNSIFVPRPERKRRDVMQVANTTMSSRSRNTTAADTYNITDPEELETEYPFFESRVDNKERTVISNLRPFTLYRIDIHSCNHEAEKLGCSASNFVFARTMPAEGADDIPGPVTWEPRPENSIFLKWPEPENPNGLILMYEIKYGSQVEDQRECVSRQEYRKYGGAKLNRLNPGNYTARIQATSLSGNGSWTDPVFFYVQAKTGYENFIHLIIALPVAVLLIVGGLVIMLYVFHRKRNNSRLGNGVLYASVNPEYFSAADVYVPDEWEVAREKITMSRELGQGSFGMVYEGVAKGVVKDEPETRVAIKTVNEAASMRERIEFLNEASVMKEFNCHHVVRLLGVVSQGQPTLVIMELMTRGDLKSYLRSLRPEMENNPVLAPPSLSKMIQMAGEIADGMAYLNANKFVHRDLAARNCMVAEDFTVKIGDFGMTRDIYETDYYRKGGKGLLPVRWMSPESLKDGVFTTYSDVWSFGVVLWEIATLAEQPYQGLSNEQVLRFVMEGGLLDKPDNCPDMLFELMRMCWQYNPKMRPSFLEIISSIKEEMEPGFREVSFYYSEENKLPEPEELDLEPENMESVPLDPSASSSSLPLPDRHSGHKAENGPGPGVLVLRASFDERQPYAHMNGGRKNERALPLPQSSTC
Experimental: as §1

FGFR1 = FGFR1 (Homo sapiens, UniProt P11362); assay: Caliper Mobility Shift Assay, kinase inhibition; format: biochemical; settings: read-out: Kinase inhibitory activity (IC50, nM) FGFR1
Sequence of FGFR1 (P11362 22-822, species assumed): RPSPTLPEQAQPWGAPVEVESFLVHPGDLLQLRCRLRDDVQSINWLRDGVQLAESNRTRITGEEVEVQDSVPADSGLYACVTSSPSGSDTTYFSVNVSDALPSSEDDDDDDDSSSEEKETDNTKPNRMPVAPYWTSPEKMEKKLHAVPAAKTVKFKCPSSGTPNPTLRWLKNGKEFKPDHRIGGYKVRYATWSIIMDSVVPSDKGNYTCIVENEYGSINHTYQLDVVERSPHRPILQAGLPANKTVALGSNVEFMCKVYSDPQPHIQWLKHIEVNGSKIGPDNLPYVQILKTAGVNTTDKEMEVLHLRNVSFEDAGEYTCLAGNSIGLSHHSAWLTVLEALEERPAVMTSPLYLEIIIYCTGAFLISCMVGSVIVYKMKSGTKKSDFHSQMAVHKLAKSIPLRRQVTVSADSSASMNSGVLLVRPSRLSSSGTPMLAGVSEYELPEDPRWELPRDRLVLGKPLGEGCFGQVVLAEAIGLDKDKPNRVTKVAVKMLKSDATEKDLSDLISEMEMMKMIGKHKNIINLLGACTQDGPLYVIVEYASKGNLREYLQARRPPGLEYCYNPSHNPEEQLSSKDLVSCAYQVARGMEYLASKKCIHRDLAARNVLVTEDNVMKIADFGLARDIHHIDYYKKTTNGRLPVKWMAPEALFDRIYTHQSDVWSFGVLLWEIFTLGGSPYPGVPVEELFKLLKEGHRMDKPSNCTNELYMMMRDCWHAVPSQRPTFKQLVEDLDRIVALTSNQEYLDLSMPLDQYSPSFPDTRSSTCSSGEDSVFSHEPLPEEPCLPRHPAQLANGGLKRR

VEGFR1 = VEGFR1 (Homo sapiens, UniProt P17948); assay: Caliper Mobility Shift Assay, kinase inhibition; format: biochemical; settings: read-out: Kinase inhibitory activity (IC50, nM) VEGFR1
FLT3 = biological target: T1, FLT3 (Homo sapiens, UniProt P36888); assay: Caliper Mobility Shift Assay, kinase inhibition; format: biochemical; settings: read-out: Kinase inhibitory activity (IC50, nM) FLT3
T1 sequence (P36888 27-993): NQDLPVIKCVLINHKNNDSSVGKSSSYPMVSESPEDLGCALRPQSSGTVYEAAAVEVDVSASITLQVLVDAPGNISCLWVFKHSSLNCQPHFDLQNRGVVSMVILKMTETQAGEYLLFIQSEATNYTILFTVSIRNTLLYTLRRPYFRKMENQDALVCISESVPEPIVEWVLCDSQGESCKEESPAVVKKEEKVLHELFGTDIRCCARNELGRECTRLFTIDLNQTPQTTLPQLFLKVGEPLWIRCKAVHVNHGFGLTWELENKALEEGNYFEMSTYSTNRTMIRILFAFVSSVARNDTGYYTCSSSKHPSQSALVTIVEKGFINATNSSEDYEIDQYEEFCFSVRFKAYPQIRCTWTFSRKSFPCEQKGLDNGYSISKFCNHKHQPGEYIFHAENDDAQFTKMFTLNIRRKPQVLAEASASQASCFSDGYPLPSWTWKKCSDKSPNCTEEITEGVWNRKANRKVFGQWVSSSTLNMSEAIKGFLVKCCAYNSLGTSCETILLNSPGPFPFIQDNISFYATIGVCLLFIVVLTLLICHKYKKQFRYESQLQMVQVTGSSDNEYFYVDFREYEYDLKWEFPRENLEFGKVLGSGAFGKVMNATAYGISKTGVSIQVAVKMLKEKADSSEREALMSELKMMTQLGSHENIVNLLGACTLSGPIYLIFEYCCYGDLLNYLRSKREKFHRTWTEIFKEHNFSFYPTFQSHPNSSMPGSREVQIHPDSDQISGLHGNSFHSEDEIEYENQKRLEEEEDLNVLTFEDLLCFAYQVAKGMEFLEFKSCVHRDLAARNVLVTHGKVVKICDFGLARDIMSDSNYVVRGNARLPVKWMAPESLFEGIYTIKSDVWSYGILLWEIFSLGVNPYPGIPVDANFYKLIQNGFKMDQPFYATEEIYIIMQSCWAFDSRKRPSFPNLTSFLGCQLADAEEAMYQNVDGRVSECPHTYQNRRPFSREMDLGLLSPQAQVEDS

VEGFR3 = VEGFR3 (Homo sapiens, UniProt P35916); assay: Caliper Mobility Shift Assay, kinase inhibition; format: biochemical; settings: read-out: Kinase inhibitory activity (IC50, nM) VEGFR3
Sequence of VEGFR3 (P35916 25-1363, species assumed): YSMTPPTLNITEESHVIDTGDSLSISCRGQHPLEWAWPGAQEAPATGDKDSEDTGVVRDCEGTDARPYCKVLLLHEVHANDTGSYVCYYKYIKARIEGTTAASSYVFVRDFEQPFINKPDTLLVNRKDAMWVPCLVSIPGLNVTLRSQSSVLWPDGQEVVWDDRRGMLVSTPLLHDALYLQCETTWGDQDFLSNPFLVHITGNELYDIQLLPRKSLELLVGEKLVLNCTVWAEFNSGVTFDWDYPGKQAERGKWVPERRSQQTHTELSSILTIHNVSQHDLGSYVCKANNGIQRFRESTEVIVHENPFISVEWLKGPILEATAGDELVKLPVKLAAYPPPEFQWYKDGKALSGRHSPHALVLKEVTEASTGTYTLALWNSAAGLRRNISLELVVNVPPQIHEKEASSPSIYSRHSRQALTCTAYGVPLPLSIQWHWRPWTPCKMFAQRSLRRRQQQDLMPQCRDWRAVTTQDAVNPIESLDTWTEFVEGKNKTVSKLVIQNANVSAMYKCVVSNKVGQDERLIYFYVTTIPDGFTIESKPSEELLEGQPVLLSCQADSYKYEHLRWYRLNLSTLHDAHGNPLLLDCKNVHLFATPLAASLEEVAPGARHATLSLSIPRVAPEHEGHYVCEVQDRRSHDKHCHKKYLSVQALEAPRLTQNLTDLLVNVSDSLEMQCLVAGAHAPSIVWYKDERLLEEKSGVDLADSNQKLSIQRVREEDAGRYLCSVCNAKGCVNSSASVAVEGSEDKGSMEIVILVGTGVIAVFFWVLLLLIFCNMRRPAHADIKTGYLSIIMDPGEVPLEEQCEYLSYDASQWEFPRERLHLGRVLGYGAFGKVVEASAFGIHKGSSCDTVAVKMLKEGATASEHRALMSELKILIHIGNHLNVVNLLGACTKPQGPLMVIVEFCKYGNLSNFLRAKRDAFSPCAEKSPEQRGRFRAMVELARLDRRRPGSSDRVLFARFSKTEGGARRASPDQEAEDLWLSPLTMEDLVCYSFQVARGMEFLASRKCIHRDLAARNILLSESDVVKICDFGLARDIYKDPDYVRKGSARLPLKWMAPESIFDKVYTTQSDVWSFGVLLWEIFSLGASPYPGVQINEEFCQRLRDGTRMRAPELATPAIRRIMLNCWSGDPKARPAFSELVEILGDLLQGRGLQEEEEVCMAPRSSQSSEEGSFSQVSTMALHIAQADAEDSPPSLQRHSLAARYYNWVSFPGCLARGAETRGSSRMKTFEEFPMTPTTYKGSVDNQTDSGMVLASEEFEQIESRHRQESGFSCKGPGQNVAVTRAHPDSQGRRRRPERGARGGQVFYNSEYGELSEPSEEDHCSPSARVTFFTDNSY

PDGFRβ = PDGFRβ (Homo sapiens, UniProt P09619); assay: Caliper Mobility Shift Assay, kinase inhibition; format: biochemical; settings: read-out: Kinase inhibitory activity (IC50, nM) PDGFRβ
Sequence of PDGFRβ (P09619 33-1106, species assumed): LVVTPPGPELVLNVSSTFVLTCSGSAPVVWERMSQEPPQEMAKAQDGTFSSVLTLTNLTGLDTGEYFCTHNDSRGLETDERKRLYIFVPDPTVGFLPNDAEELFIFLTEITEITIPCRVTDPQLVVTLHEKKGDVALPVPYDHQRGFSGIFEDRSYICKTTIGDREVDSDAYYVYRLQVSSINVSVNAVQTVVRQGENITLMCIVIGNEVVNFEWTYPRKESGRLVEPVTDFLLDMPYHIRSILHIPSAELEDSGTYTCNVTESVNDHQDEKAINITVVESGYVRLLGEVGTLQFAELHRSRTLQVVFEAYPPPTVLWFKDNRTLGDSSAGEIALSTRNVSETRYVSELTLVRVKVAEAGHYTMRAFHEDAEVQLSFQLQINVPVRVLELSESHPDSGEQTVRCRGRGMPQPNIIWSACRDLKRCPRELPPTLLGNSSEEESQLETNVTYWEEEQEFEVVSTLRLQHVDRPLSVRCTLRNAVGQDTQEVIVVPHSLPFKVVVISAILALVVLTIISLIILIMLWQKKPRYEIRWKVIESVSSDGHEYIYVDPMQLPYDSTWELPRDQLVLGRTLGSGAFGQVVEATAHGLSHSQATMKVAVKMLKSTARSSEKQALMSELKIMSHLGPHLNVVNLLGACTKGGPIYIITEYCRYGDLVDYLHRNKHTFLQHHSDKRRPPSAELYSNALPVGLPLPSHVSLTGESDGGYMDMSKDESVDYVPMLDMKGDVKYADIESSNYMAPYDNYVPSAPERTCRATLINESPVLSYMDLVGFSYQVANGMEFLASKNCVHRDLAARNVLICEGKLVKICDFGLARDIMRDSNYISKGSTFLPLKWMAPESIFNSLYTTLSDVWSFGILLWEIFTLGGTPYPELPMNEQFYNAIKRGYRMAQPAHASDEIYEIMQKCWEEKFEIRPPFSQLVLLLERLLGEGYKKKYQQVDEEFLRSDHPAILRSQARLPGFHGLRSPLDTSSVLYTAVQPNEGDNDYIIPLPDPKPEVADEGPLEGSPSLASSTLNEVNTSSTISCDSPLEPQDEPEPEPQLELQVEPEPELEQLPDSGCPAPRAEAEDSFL

VEGFR2 = VEGFR2 (Homo sapiens, UniProt P35968); assay: Caliper Mobility Shift Assay, kinase inhibition; format: biochemical; settings: read-out: Kinase inhibitory activity (IC50, nM) VEGFR2
[1] = Pharmacokinetic property evaluation test in CD-1 mice, intravenous; format: in vivo; settings: both sexes, mouse, plasma, intravenous injection, 3 mg/kg, single administration, non-compartment model; for half-life: read-out: Terminal t1/2 (converted); for Vd: read-out: Vss
Experimental: Experimental animals: CD-1 mice, males and females; weight: 20-25 g;
[…] Route of administration: intravenous injection. […] Dosage: 3 mg/kg.
Sample collection: Blood was collected at the following time points: 5 min, 15 min, 30 min, 1 hr, 2 hr, 4 hr, 8 hr, and 24 hr after administration.
Sample analysis: The collected samples were tested using the LC-MS/MS method. The instrument model was API4000.
Pharmacokinetic data analysis: The obtained plasma concentration data were fitted and calculated according to the non-compartment model using WinNolin, and some results are summarized in Table 2.

PDGFRα = PDGFRα (Homo sapiens, UniProt P16234); assay: Caliper Mobility Shift Assay, kinase inhibition; format: biochemical; settings: read-out: Kinase inhibitory activity (IC50, nM) PDGFRα
RET = RET (Homo sapiens, UniProt P07949); assay: Caliper Mobility Shift Assay, kinase inhibition; format: biochemical; settings: read-out: Kinase inhibitory activity (IC50, nM) RET

IC50 (EGFR) | IC50 (IGF1R) | IC50 (FGFR1) | IC50 (VEGFR1) | IC50 (FLT3) | IC50 (VEGFR3) | IC50 (PDGFRβ) | IC50 (VEGFR2) | AUC(0-t) [1] | MRT inf [1] | clearance [1] | half-life [1] | Vd [1] | IC50 (PDGFRα) | IC50 (RET) | SMILES
10600 nM | > 400000 nM |  |  |  |  |  |  |  |  |  |  |  |  |  | CNC(=O)c1cc(Oc2ccc(NC(=O)Nc3ccc(Cl)c(C(F)(F)F)c3)c(F)c2)ccn1 [Regorafenib, regorafenib, reference compound]
> 200000 nM | > 200000 nM | > 1000 nM | 555 nM | 890 nM | 84 nM | 165 nM | 3 nM | 1600 ng·h/mL | 49.2 min | 30.5 mL/min/kg | 134 min | 1.48 L/kg | 37 nM | 290 nM | COc1cc2nccc(Oc3ccc(NC(=O)Nc4cnn(C)c4)cc3F)c2cc1C(N)=O [Compound of Formula Ib]
> 200000 nM | > 200000 nM | > 1000 nM | 831 nM | 708 nM | 34 nM | 151 nM | 11 nM |  |  |  |  |  | 42 nM | 204 nM | COc1cc2nccc(Oc3ccc(NC(=O)Nc4cn[nH]c4)cc3F)c2cc1C(N)=O [Compound of Formula Ic]
> 500000 nM | > 500000 nM | > 1000 nM | 381 nM | 576 nM | 56 nM | 110 nM | 2.4 nM | 2040 ng·h/mL | 20.4 min | 25.2 mL/min/kg | 28.2 min | 0.525 L/kg | 27 nM | 106 nM | CNC(=O)c1cc2c(Oc3ccc(NC(=O)Nc4cnn(C)c4)cc3F)ccnc2cc1OC [Compound of Formula Ia]
